Patent US11000568B2, “Means and methods for treating copper-related diseases” (HELMHOLTZ ZENTRUM MÜNCHEN—DEUTSCHES FORSCHUNGSZENTRUM FÜR …, priority 2015, dated 2021)
“Also recorded” adds a separate entry of the source. Numbered stars: 1 amine (or outer) side, 2 acyl side, 3 side chain; on linkers, the order of the positions; unused ones are H or OH. Bridge positions count the residues as written; N and C are the ends. Square brackets hold non-standard residues; d marks the D form. Peptide text beside a SMILES is read from it. * marks the point of attachment. X2 = O=C1OC(C2CCCN2[*:1])=NC1C(=S)NC(CO)C(=O)[*:2]; X1 = CC(C)CC(=O)C1=NC(C(=S)NCC(=O)*)C(=O)O1

Legend:
HepG2 cells [1] = assay: Mitochondrial membrane potential staining of HepG2 cells; assay type: cell-based; conditions: 500 μM MB
Experimental: For immunofluorescence staining, 2×10^4 cells were incubated with either medium alone, 500 μM MB or 250 μM CCCP in black 96-well plates with clear glass bottom. Staining was done by 1.6 μM Hoechst 33342 (ex 360-400 nm, em 410-480 nm), 300 nM MitoTracker® red (ex 620-640 nm, em 650-760 nm), and 1 μM nonyl acridine orange (NAO, ex 460-490 nm, em 500-550 nm) for 40 minutes at 37° C. After a washing step, fluorescence was analyzed.

[2] = biological target: mitochondrial respiratory complex IV (Rattus norvegicus, UniProt P00406+P05503)
Chain of mitochondrial respiratory complex IV (P00406 whole entry, other chains not shown): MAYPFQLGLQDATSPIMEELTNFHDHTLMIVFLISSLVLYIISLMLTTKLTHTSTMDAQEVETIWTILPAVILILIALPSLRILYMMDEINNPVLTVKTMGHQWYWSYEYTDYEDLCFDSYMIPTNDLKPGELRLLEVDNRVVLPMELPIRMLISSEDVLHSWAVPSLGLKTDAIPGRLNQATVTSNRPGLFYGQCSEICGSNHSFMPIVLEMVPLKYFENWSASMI

HepG2 cells [3] = assay: Cellular MB uptake by competitive ELISA; assay type: in vitro ADME; conditions: 2 and 24 hours
Experimental: Cellular MB uptake was determined from cell lysates incubated for 2 or 24 h with MB at different concentrations by a competitive ELISA using a monoclonal anti-MB antibody.
Competitive ELISA. All 86 TCS were diluted 1:10 with buffer (PBS, 5% FCS, 0.01% sodium acide). 50 μl of each TCS were pre-incubated with 50 μl MB solution (1000 ng/ml in buffer) or buffer overnight. The experiments were run in duplicates. 50 μl of the pre-incubated sample were added to ELISA plates coated with MB as used for screening. After 10 min, the plates were washed, bound antibodies against MB were detected with HRP conjugated mAbs against the rat IgG isotypes and HRP was visualized with TMB. MAbs that recognized free MB (no signal when pre-incubated with MB, positive signal in the buffer control) were further analyzed in a serial dilution of MB (1000 ng/ml to 2 ng/ml). The four mAbs that best recognized free MB were established (10610, 12D9, 18H7, 21G5, all of rat IgG2a subclass). To increase the sensitivity of the test system, the TCS of the established hybridomas were titrated on ELISA plates coated with MB. The titer of […] was far better (1:1260) than of 12D9 (1:320), 18H7 (1:10) and 21G5 (1:320).
For the test system 10610 was used at a dilution of 1:500 and the pre-incubation time reduced to one hour.

HepG2 cells [4] = assay: Neutral red cell toxicity assay; assay type: cell-based; conditions: 24 hours, 0.05 to 1 mM Zinc-MB
Experimental: Neutral red cell toxicity assay was done as described elsewhere (Repetto et al., Nat Protoc 3, 1125-1131 (2008)). In brief, 2×10^4 cells were incubated for 24 hours either with medium alone (containing 2% FCS, negative control), 0.05 to
1 mM Zinc-MB, or 0.25 mM CCCP as mitochondriotoxic positive control and subsequently analyzed by neutral red.

diseased LPP−/− rats = assay: Acute rescue regimen in diseased LPP−/− rats; assay type: in vivo, rat
LPP−/− rats = assay: Short-term in vivo treatment of LPP−/− rats; design: species or system rat
Experimental: LPP rats were treated with MB either by daily i.p. injections for 3 or 5 consecutive days, or twice daily i.p. injections for 8 consecutive days at a dose of 150 mg/kg bw or 4 days via the drinking water with D-PA at a dose of 100 mg/kg bw/d or TETA at 480 mg/kg bw/d, respectively (Togashi et al., Hepatology 15, 82-87 (1992)). Based on a mean copper content of 250 μg/g w.w. in Atp7b−/− rat livers at the age of treatment start (Zischka et al., log. cit.), a LPP−/− rat liver of 8 g w.w. contains around 31.5 μmol copper. Single MB doses were chosen equimolar to this copper amount. […] Assuming 40 ml water intake per day for a rat weighing 250 g this translates to a dose of 480 mg/kg bw/d. With respect to the mean liver copper content in LPP−/− rats aged 85 days, the molar ratios of the chelators applied was MB 1:D-PA 4.3:TETA 17.4, respectively. For the intravenous MB application (150 mg/kg bw), catheters connected to a PinPort™ (Instech Laboratories, Inc., USA) were inserted in the femoral vein of the rat, fixed with non-absorbable sutures and subcutaneously tunneled and exteriorized through a skin incision made between the shoulders.
Formalin-fixed, paraffin-embedded liver samples were cut into 4 μm-thick sections and either stained with hematoxylin and eosin for standard analyses or with Masson trichrome for analysis of fibrotic tissue. AST activity and bilirubin concentration in animal plasma or serum were measured with a Reflotron system (Roche).
Copper in liver homogenates, cell lysates and mitochondrial preparations were analyzed by ICP-OES (Ciros Vision, SPECTRO Analytical Instruments GmbH) after wet ashing of samples with 65% nitric acid (Zischka et al., log. cit.).
The efficiency of a short-term MB treatment schedule was assessed in LPP−/− rats at the age of liver disease onset (85-90 days). Animals received MB (i.p.) either for 3 or 5 days or the clinically used copper chelators D-PA or TETA, which were orally administered for 4-days.

LPP−/− mitochondria = assay: Chelator treatment of freshly isolated copper burdened LPP−/− mitochondria (copper extraction); design: species or system rat; conditions: 2 mM each, 30 min incubation
[5] = Stability analysis of MB by absorbance of oxazolone rings; assay type: physicochemical; conditions: time and/or temperature
Experimental: (C) Stability analysis of metal free MB and Zn-loaded MB followed by absorbance measurements of their two metastable oxazolone rings (OxaA/ZnA at 394 nm and OxaB/ZnB at 340 nm)^57 at 37° C.
HepG2 cells were kept in MEM with 2% FCS. […] Therefore, Zn-MB, generated by preparing a 20 mM MB solution and adding an equimolar concentration of Zn solution under pH control, was used in cell culture experiments.

[6] = MB i.p. 3 or 5 days, D-PA or TETA 4 days
[7] = i.v. MB daily, five consecutive days

## CSCCC(NC(=O)C1CSSCC(NC(=O)C(CO)NC(=O)CNC(=S)C2N=C(C(=O)CC(C)C)OC2=O)C(=O)NC(Cc2ccc(O)cc2)C(=O)N2CCCC2C2=NC(C(=O)O2)C(=S)NC(CO)C(=O)N1)C(=O)O (stereo not drawn) [MB] (X1-SCY[X2]CM-OH; disulfide 2-5; configuration not given here)
HepG2 cells [1]
  mitochondrial membrane potential: reduced the mitochondrial membrane potential only partially; also recorded: only intermediate phases of mitochondrial membrane potential loss
[2]
  toxicity to copper-dependent respiratory complex IV activity: significantly less toxic than TTM
HepG2 cells [3]
  intracellular MB uptake: taken up in a dose dependent manner
HepG2 cells [4]
  cytotoxic effects (neutral red): only observed at millimolar MB concentrations
Diseased LPP−/− rats; 16 i.p. injections
  body weight: regained weight
Diseased LPP−/− rats; end of treatment regimen
  copper values: exceptionally low copper values
  serum AST and bilirubin: normal serum AST and bilirubin
Diseased LPP−/− rats; moribund animal no. 3
  weight regained: 29%
Diseased LPP−/− rats; two daily MB i.p. injections for one week (16 in total), four rats
  survival: All animals survived
LPP−/− rats; MB 150 mg/kg bw i.p. daily 3 or 5 days, D-PA 100 mg/kg bw/d or TETA 480 mg/kg bw/d oral 4 days
  histopathological liver damage: strong reduction of histopathological liver damage markers
LPP−/− rats; MB five days, then drug holiday, zinc enriched food (1000 ppm)
  duration of normal serum AST on MB drug holiday: at least two weeks
LPP−/− rats; MB i.p. 3 or 5 days
  body weight: regained body weight
LPP−/− rats; [6]
  mitochondrial copper: significant reduction at the mitochondrial copper level
  serum AST levels: markedly decreased
  whole liver copper: progressive reduction in total liver copper; also recorded: progressive but minor reduction at the whole liver copper level
LPP−/− rats; after 5 days of MB treatment, two onset and one diseased rat
  serum AST: < 200 U/L
LPP−/− rats; electron microscopy, short-term treatment
  severely impaired mitochondria (type 4) in isolates: almost absent
LPP−/− rats; i.v. MB 150 mg/kg bw daily, five consecutive days
  body weight: All animals regained bodyweight
LPP−/− rats; [7]
  AST or bilirubin levels: levels returned to normal
  copper content of whole liver and purified mitochondria: profound reduction in copper content
LPP−/− rats; one week: 5× MB i.p., 5× MB i.v., 16× MB i.p.
  mitochondrial copper load: drastically reduce the mitochondrial copper load
LPP−/− rats; short term MB treatments
  ATP production of isolated mitochondria: reverse this impairment
LPP−/− mitochondria
  copper associated with LPP−/− mitochondria: rapidly decreased copper
[5]
  decay: susceptible to time- and/or temperature-dependent decay
